Common to all, as to type: cell-based
One experiment deals with T1, human TLR9 (Homo sapiens, UniProt Q9NR96).
T1 construct: host or cells: HEK-Blue cells (HEK293-derived reporter line)
T1 sequence (Q9NR96 26-1032): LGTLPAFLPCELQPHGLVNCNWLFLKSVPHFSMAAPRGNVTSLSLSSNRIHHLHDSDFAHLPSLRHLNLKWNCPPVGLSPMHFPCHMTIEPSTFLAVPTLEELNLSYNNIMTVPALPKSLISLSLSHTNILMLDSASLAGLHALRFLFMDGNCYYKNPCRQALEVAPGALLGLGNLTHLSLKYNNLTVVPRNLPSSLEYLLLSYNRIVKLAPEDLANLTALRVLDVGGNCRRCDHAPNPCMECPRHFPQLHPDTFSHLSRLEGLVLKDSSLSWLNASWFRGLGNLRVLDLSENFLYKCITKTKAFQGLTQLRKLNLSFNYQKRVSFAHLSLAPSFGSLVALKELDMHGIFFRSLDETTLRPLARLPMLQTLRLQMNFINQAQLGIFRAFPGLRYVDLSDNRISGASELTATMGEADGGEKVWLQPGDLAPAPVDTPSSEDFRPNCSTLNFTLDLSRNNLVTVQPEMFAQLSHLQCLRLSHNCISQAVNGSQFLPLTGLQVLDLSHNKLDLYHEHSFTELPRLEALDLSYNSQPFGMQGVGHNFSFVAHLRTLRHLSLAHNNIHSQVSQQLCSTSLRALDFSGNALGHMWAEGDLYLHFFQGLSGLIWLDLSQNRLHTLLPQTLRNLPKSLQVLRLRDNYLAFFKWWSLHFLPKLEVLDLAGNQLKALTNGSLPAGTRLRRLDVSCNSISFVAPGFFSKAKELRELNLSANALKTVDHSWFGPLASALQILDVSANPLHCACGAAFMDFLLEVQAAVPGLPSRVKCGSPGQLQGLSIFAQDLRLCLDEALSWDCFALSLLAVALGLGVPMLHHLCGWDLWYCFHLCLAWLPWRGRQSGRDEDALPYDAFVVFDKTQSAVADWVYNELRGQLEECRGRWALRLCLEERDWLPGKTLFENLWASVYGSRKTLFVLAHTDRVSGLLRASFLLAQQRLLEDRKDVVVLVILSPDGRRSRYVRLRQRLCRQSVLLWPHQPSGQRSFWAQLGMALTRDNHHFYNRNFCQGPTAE
Briefly: TLR7/8/9 Inhibition Reporter Assays (TLR9). Conditions: HEK-Blue cells overexpressing human TLR9, SEAP reporter, stimulated with TLR9 ligand ODN2006. In short, it runs like this:
(§1)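 HEK-Blue cells overexpressing human TLR7, TLR8 or TLR9 with NF-κB/AP-1-driven SEAP reporter, pre-treated 60 min with compound ([…]). Stimulated with […] (TLR7), […] (TLR8) or ODN2006 200 nM (TLR9), then 22 h at 37° C; SEAP measured, % inhibition relative to agonist-plus-DMSO and known-inhibitor wells.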
For orientation: A reporter such as luciferase makes a cellular process visible.

The next experiment deals with T2, human TLR7 (Homo sapiens, UniProt Q9NYK1).
T2 construct: host or cells: HEK-Blue cells (HEK293-derived reporter line)
T2 sequence (Q9NYK1 27-1049): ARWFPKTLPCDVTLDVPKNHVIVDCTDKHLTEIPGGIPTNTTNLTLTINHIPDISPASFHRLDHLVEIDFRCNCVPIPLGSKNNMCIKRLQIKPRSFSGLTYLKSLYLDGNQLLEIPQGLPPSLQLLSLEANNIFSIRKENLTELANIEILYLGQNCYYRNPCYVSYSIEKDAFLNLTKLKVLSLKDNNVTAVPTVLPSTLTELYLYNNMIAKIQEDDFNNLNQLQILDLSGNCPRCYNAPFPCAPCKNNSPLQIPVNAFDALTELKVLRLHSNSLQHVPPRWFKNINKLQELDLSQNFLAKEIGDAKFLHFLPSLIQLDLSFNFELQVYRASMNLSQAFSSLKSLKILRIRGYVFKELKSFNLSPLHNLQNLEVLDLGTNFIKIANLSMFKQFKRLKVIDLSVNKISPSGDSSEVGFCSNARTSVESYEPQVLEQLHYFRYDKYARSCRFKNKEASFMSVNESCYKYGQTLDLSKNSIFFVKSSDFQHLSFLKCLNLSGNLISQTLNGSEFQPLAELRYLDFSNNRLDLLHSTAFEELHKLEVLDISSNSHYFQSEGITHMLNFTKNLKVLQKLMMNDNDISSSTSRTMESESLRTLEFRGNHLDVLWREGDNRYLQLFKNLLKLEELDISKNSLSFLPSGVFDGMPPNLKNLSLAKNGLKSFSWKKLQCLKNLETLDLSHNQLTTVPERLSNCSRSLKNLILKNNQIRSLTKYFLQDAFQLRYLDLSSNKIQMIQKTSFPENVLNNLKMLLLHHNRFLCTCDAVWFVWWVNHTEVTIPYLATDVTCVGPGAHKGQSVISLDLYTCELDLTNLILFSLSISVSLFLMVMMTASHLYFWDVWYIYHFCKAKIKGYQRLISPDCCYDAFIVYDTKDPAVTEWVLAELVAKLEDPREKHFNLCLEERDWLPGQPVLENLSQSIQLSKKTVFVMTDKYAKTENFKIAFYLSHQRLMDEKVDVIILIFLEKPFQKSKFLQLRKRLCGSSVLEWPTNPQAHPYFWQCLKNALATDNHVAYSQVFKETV
Briefly: TLR7/8/9 Inhibition Reporter Assays (TLR7). The settings on record: HEK-Blue cells overexpressing human TLR7, SEAP reporter, stimulated with TLR7 ligand gardiquimod. In outline:
as §1

The next experiment deals with T3, human TLR8 (Homo sapiens, UniProt Q9NR97).
T3 construct: host or cells: HEK-Blue cells (HEK293-derived reporter line)
T3 sequence (Q9NR97 27-1041): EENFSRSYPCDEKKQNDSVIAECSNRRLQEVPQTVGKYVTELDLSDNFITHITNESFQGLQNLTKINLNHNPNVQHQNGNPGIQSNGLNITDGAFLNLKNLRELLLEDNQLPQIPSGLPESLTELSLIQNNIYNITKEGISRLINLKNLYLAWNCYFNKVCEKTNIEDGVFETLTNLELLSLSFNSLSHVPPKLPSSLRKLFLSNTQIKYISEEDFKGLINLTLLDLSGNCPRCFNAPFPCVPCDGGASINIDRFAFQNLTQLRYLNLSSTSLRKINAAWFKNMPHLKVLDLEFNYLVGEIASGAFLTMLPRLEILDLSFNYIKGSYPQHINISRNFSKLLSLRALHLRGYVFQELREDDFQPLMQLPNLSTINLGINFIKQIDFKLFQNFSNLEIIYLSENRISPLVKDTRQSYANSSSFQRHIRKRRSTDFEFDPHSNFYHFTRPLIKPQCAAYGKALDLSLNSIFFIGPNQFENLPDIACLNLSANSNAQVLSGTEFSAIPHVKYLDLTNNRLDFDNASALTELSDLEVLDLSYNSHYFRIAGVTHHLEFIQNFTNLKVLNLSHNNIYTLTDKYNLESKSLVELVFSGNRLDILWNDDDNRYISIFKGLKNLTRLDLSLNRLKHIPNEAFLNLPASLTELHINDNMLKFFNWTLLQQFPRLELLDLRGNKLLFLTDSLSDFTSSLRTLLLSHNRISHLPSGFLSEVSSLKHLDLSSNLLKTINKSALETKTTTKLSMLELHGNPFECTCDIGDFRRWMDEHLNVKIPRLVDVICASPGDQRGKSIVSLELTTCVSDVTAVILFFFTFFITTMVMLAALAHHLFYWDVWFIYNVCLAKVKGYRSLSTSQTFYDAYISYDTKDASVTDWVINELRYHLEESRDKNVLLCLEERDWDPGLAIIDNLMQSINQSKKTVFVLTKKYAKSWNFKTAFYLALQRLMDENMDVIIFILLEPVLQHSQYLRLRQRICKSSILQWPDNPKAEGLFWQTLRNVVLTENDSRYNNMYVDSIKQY
As to the kind of experiment: TLR7/8/9 Inhibition Reporter Assays (TLR8). The settings on record: HEK-Blue cells overexpressing human TLR8, SEAP reporter, stimulated with TLR8 ligand R848. In short, it runs like this: as §1

The source of these data is patent US20250163054A1, “SUBSTITUTED BICYCLIC HETEROARYL COMPOUNDS USEFUL AS INHIBITORS OF TLR9” (Bristol-Myers Squibb Company, priority 2022, published 2025).

Some results are limits rather than exact numbers.

`CC(C)N1CC2(CN(c3ccc(-c4cc5c(cn4)nc(-c4ccc(S(C)(=O)=O)cc4)n5C4CC4)cc3)C2)C1` [Example 89, 1-cyclopropyl-6-(4-(6-isopropyl-2,6-diazaspiro[3.3]heptan-2-yl)phenyl)-2-(4-(methylsulfonyl)phenyl)-1H-imidazo[4,5-c]pyridine]: the 50% inhibitory concentration (IC50) (commonly the concentration needed to halve the response being measured) on human TLR9 was 420 nM; against human TLR7, 1900 nM; on human TLR8, 4500 nM.

Consider `CS(=O)(=O)c1ccc(-c2nc3cnc(-c4ccc(N5CCN(CCN6CCOCC6)CC5)cc4)cc3n2C2CC2)cc1` [Example 56, 4-(2-(4-(4-(1-cyclopropyl-2-(4-(methylsulfonyl)phenyl)-1H-imidazo[4,5-c]pyridin-6-yl)phenyl)piperazin-1-yl)ethyl)morpholine], for which the IC50 on human TLR9 was 880 nM; against human TLR7, greater than 50000 nM; against human TLR8, 46000 nM.

In the case of `COc1cc(-c2nc3c(C)nc(-c4ccc(N5CCN(C(C)C)CC5)cc4)cc3n2C)cn2ncnc12` [Example 9, 6-(6-(4-(4-isopropylpiperazin-1-yl)phenyl)-1,4-dimethyl-1H-imidazo[4,5-c]pyridin-2-yl)-8-methoxy-[1,2,4]triazolo[1,5-a]pyridine], the values for the half-inhibitory concentration (IC50) on human TLR9, against human TLR7 and against human TLR8 were 220 nM, 470 nM and 9100 nM, respectively.

As to `Cc1nc(-c2ccc(CN3CCC(N4CCOCC4)CC3)cc2)cc2c1nc(-c1ccc(S(C)(=O)=O)cc1)n2C1CC1` [Example 48, 4-(1-(4-(1-cyclopropyl-4-methyl-2-(4-(methylsulfonyl)phenyl)-1H-imidazo[4,5-c]pyridin-6-yl)benzyl)piperidin-4-yl) morpholine], the results for the IC50 against human TLR9, at human TLR7 and against human TLR8 were 270 nM, 3800 nM and 1700 nM, respectively.

Regarding `Cc1nc(-c2ccc(N3CC4(CCN(C(C)C)CC4)C3)cc2)cc2c1nc(-c1ccc(S(C)(=O)=O)cc1)n2C` [Example 63, 6-(4-(7-isopropyl-2,7-diazaspiro[3.5]nonan-2-yl)phenyl)-1,4-dimethyl-2-(4-(methylsulfonyl)phenyl)-1H-imidazo[4,5-c]pyridine], the half-maximal inhibitory concentration (IC50) on human TLR9 is 170 nM; against human TLR7, 1400 nM; on human TLR8 it was 5300 nM.

Turning to `Cc1nc(-c2ccc(N3C[C@H]4CN(CC(C)C)C[C@H]4C3)cc2)cc2c1nc(-c1ccc(S(C)(=O)=O)cc1)n2C` [Example 68, 6-(4-((3aR,6aS)-5-isobutylhexahydropyrrolo[3,4-c]pyrrol-2(1H)-yl)phenyl)-1,4-dimethyl-2-(4-(methylsulfonyl)phenyl)-1H-imidazo[4,5-c]pyridine], the IC50 on human TLR9 came out at 32 nM; on human TLR7, 2000 nM; against human TLR8, 3100 nM.

Regarding `CC(C)N1C[C@H]2CN(c3ccc(-c4cc5c(cn4)nc(-c4ccc(S(C)(=O)=O)cc4)n5C4CC4)cc3)C[C@H]2C1` [Example 87, 1-cyclopropyl-6-(4-((3aR,6aS)-5-isopropylhexahydropyrrolo[3,4-c]pyrrol-2(1H)-yl)phenyl)-2-(4-(methylsulfonyl)phenyl)-1H-imidazo[4,5-c]pyridine], the IC50 on human TLR9 worked out at 290 nM; against human TLR7, 1500 nM; against human TLR8, 2000 nM.

For the molecule `Cc1nc(-c2ccc(CCN3CCC(N4CCOCC4)CC3)cc2)cc2c1nc(-c1ccc(S(C)(=O)=O)cc1)n2C` [Example 53, 4-(1-(4-(1,4-dimethyl-2-(4-(methylsulfonyl)phenyl)-1H-imidazo[4,5-c]pyridin-6-yl)phenethyl)piperidin-4-yl) morpholine], the IC50 on human TLR9 turned out to be 74 nM; against human TLR7, 3100 nM; at human TLR8, 7600 nM.

`COc1ccc(-c2nc3c(C)nc(-c4ccc(N5C[C@H]6CN(CC(C)(C)O)C[C@H]6C5)cc4)cc3n2C)cc1OC` [Example 94, 1-((3aR,6aS)-5-(4-(2-(3,4-dimethoxyphenyl)-1,4-dimethyl-1H-imidazo[4,5-c]pyridin-6-yl)phenyl)hexahydropyrrolo[3,4-c]pyrrol-2(1H)-yl)-2-methylpropan-2-ol]: the figures for the IC50 at human TLR9, against human TLR7 and at human TLR8 were 250 nM, 2600 nM and 44000 nM, respectively.

Turning to `COc1cc(-c2nc3c(C)nc(-c4ccc(N5CCN(C6CCC6)CC5)cc4)cc3n2C)cn2ncnc12` [Example 12, 6-(6-(4-(4-cyclobutylpiperazin-1-yl)phenyl)-1,4-dimethyl-1H-imidazo[4,5-c]pyridin-2-yl)-8-methoxy-[1,2,4]triazolo[1,5-a]pyridine], the concentration for half-maximal inhibition (IC50) was 630 nM against human TLR9, 1500 nM against human TLR7 and greater than 50000 nM at human TLR8.

As for `Cc1cc(-c2nc3c(C)nc(-c4ccc(N5CCN(C(C)C)CC5)cc4)cc3n2C)cc(C)n1` [Example 13, 2-(2,6-dimethylpyridin-4-yl)-6-(4-(4-isopropylpiperazin-1-yl)phenyl)-1,4-dimethyl-1H-imidazo[4,5-c]pyridine], the 50% inhibitory concentration (IC50) against human TLR9 was 410 nM; against human TLR7, 1900 nM; against human TLR8, greater than 50000 nM.
